Results as given in ChEMBL document CHEMBL1201862, “PubChem BioAssay data set” (2004).
Activity calls are given as the source filed them.

Columns and labels:
[1] = biological target: T1, Rac GTPase-activating protein 1 (Homo sapiens, UniProt Q9H0H5); test: MgcRacGAP GTPase-activating activity inhibitors, confirmation, biochemical, ADP Hunter fluorescence, primary and confirmatory (AID 624330); assay type: functional
T1 sequence (Q9H0H5 whole entry): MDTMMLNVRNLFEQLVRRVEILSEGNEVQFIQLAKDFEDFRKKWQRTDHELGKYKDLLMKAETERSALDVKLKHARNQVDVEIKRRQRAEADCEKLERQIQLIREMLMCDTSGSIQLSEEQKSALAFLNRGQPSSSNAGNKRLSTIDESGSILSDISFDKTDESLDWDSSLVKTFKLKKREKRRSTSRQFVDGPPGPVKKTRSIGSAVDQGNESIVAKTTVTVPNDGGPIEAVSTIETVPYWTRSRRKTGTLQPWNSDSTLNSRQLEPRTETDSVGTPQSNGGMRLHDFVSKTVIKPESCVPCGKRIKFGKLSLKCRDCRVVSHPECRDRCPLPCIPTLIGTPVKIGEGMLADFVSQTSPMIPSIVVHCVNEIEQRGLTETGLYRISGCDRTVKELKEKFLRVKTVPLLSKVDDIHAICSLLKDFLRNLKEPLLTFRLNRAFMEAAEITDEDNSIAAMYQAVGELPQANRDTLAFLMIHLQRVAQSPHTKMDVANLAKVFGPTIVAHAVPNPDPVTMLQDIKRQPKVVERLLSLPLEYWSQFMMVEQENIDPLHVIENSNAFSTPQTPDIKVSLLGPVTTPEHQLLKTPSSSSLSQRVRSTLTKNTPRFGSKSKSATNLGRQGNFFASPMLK

Keap1/Nrf2 = Keap1/Nrf2 (Homo sapiens, UniProt Q14145); test: Keap1-Nrf2 protein-protein interaction inhibitors, dose response, biochemical, fluorescence polarization, cherry-picked samples (AID 588683)
[2] = biological target: Dual specificity tyrosine-phosphorylation-regulated kinase 1A (Rattus norvegicus, UniProt Q63470); assay type: biochemical, Homo sapiens
HEK293 [3] = test: optical interference in Abeta FP readout, dose response, artefact control for IDE activator project, biochemical, fluorescence polarization (AID 588442); assay type: functional, cell-based; conditions: Homo sapiens
[4] = biological target: UDP-galactopyranose mutase (Mycobacterium tuberculosis, UniProt P9WIQ1); test: Inhibitors of Mycobacterium tuberculosis UDP-galactopyranose mutase (UGM) enzyme Measured in Biochemical System Using Plate Reader - 2105-02_Inhibitor_Dose_CherryPick_Activity. [Related pubchem assays (depositor defined):AID504439]
ORF 73 = biological target: T2, ORF 73 (Human herpesvirus 8, UniProt O40947); test: inhibitors of C-LANA binding to LBS DNA, dose response, biochemical, fluorescence polarization, cherry-picked samples (AID 504725); parameters: species or system Human gammaherpesvirus 8;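 also: fluorescence polarization of a labeled DNA duplex reporting LANA DNA binding; potency is for inhibitors that block LANA binding to the DNA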
T2 sequence (O40947 whole entry): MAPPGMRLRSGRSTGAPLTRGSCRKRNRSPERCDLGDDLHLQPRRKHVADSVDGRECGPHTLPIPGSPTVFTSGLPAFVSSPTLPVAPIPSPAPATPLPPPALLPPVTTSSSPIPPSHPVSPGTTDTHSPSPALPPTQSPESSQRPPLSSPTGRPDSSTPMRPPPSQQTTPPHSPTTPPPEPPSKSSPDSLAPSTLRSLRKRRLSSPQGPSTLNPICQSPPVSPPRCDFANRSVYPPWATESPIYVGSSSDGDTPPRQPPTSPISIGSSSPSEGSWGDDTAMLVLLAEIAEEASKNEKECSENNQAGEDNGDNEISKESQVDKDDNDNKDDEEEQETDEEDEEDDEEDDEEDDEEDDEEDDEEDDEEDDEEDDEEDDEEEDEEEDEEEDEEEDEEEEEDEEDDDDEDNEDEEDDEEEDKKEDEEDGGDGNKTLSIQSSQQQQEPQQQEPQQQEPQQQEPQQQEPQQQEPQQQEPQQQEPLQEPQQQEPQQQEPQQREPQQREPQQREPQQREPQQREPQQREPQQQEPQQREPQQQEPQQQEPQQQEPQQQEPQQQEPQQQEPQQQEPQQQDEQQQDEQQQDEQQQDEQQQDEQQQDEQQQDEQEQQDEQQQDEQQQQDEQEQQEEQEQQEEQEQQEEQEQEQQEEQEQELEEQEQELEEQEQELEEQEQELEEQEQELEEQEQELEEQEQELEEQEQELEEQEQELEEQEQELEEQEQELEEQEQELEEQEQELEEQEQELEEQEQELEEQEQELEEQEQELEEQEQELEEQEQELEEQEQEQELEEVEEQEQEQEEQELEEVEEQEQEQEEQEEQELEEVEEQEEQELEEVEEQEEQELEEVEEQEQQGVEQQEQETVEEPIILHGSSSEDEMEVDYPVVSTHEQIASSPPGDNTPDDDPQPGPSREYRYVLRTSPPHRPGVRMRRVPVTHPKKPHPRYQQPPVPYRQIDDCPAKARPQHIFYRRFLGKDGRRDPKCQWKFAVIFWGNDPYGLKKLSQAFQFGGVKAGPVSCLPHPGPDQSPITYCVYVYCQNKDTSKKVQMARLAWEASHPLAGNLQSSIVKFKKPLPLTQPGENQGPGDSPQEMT

Insulin-degrading enzyme [5] = biological target: T3, Insulin-degrading enzyme (Homo sapiens, UniProt P14735); test: activators of endogenous IDE in HEK cells, dose response, cell-based, fluorescence polarization (AID 588439); assay type: functional
T3 sequence (P14735 whole entry): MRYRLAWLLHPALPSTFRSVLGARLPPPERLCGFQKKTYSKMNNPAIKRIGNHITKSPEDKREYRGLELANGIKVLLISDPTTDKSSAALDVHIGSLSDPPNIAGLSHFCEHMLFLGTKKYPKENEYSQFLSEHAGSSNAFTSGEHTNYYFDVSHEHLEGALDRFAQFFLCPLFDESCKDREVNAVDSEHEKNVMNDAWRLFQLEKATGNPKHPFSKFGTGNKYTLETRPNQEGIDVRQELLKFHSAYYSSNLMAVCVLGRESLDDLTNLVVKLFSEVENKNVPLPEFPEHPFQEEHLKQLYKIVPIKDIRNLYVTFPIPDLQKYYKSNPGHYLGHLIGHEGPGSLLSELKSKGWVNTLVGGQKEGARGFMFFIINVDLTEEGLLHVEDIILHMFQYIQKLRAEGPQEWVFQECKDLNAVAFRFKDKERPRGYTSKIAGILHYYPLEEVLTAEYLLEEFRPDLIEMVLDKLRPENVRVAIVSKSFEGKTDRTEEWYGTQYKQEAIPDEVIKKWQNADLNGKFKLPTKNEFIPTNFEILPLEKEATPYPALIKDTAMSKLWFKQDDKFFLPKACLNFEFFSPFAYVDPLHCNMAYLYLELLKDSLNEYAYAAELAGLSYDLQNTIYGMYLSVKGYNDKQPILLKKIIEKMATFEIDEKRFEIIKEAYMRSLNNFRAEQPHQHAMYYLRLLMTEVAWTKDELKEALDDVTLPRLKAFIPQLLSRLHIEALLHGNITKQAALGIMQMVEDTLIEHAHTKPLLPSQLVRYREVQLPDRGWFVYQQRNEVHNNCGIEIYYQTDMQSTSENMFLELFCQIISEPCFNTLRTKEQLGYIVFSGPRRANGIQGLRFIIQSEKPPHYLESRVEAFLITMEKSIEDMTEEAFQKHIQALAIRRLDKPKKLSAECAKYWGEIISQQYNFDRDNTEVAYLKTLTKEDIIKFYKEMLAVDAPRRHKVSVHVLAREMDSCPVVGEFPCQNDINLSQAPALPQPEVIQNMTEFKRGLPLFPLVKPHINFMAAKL

CHO = test: cytotoxicity in TLR9-MyD88 CHO cells, dose response, cytotoxicity control for TLR9-MyD88 binding inhibitor project, cell-based, luminescence (AID 588339); assay type: functional, hamster; conditions: Cricetulus griseus;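 also: CHO cells stably coexpressing TLR9 and MyD88 fusions from primary screen; compound exposure lasted 48 hours before viability readout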
Insulin-degrading enzyme [6] = biological target: T3, Insulin-degrading enzyme; test: activators of recombinant IDE enzyme, dose response, counter-screen for IDE activator project, biochemical, fluorescence polarization (AID 588681)
Large T antigen = Large T antigen (Simian virus 40, UniProt P03070); assay type: functional, Betapolyomavirus macacae;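 also: Confirmatory-stage PubChem screen for compounds that inhibit SV40 T antigen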
Beta Lactamase = Beta Lactamase (Pseudomonas aeruginosa, UniProt Q932Y6); test: beta-lactamase reporter inhibitor potency, dose response, artefact control for TLR9-MyD88 binding inhibitor project, BLA reporter cells, FRET fluorescence (AID 588341); assay type: cell-based;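 also: cell based assay in CHO-K1 cells stably expressing beta-lactamase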
HEK293 [7] = test: HEK cell cytotoxicity by LDH release, dose response, cytotoxicity control for IDE activator project, fluorescence, HEK cells (AID 588440); assay type: functional, cell-based; conditions: Homo sapiens;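 also: cytotoxicity by LDH release measuring loss of membrane integrity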
[8] = biological target: T4, Replicative DNA helicase DnaB (Mycobacterium tuberculosis, UniProt P9WMR3); test: DnaB intein splicing inhibitors, dose response, biochemical, cell-free fluorescence (AID 449749); assay type: functional
T4 sequence (P9WMR3 whole entry): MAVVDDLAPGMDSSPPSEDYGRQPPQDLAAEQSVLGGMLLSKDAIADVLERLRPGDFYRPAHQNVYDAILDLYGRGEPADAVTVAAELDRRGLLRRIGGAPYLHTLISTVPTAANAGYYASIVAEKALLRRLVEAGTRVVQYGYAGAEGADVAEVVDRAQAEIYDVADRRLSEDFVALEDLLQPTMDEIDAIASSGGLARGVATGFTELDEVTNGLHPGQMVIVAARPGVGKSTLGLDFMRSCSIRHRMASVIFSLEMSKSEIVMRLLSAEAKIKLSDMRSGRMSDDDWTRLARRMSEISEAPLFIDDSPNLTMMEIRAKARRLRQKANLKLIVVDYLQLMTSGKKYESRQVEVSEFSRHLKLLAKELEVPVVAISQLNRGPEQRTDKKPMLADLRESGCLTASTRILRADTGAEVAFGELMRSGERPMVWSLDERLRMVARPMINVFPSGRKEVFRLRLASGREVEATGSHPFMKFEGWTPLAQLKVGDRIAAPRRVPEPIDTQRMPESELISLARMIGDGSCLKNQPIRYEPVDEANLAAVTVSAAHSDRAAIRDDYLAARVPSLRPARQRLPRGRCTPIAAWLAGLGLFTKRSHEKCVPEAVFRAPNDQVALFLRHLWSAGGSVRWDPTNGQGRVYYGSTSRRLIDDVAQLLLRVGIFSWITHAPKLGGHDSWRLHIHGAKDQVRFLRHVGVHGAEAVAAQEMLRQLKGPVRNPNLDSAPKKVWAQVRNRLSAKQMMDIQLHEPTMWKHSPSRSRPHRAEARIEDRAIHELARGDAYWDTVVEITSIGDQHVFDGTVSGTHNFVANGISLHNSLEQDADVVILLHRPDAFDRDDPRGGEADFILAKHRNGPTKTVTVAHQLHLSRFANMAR

[9] = biological target: T5, Microphthalmia-associated transcription factor (Homo sapiens, UniProt O75030); test: TRPM1 promoter luciferase signal decrease, dose response, MITF inhibitor project, cell-based, SK-MEL-5, cherry-picked, set 3 (AID 493073); assay type: functional
T5 sequence (O75030 whole entry): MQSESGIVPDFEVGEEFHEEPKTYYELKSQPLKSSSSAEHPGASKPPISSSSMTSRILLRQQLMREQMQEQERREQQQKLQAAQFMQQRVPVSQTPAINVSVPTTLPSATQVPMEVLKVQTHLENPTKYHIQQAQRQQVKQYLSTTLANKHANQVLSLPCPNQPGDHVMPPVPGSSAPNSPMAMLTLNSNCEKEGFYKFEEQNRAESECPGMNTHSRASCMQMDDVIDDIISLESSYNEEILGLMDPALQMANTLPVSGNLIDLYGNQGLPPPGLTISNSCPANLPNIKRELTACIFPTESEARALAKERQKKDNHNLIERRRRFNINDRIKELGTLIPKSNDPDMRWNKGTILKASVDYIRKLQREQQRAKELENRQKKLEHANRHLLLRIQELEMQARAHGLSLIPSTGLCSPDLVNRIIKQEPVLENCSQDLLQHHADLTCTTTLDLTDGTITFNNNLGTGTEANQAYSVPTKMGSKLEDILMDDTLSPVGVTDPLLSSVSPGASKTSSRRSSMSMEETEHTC

A-375 [10] = test: MITF: Counter assay: A375 proliferation Measured in Cell-Based System Using Plate Reader - 2084-03_Inhibitor_Dose_DryPowder_Activity. [Related pubchem assays (depositor defined):AID488944]; assay type: functional; conditions: Homo sapiens
A-375 [11] = test: A375 melanoma cell viability reduction, dose response, counter-screen for MITF modulator project, cherry-pick samples, set 2 (AID 540335); assay type: functional, cell-based; conditions: Homo sapiens
Protein RecA = biological target: T6, Protein RecA (Mycobacterium tuberculosis, UniProt P9WHJ3); test: Fluorescence Cell-Free Homogeneous Dose Retest to Identify Inhibitors of RecA-Intein Splicing Activity. [Related pubchem assays (depositor defined):AID2097, AID2223, AID489010, AID492950]; assay type: functional
T6 sequence (P9WHJ3 whole entry): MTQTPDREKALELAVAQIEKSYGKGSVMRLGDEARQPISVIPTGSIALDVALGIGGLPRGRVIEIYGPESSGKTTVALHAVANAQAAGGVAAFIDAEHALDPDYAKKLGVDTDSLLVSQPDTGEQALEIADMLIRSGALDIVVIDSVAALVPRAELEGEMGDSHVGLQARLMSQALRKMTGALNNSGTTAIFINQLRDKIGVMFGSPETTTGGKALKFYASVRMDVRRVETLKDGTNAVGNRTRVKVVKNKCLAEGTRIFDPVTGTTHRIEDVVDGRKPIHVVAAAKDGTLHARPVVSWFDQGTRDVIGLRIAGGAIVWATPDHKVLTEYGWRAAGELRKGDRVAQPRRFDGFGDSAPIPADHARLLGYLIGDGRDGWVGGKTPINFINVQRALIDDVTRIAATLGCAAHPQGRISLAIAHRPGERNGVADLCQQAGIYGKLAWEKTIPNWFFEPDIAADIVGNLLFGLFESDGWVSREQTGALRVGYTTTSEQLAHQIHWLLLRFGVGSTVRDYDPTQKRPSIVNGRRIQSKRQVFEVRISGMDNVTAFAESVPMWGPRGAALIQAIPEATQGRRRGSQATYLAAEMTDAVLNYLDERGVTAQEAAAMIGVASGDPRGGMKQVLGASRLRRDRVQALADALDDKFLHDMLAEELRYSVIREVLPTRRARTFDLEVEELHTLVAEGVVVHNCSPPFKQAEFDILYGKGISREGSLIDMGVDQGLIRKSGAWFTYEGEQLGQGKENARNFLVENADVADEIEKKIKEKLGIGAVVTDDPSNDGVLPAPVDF

UDP-galactopyranose mutase, sequence (P9WIQ1 whole entry): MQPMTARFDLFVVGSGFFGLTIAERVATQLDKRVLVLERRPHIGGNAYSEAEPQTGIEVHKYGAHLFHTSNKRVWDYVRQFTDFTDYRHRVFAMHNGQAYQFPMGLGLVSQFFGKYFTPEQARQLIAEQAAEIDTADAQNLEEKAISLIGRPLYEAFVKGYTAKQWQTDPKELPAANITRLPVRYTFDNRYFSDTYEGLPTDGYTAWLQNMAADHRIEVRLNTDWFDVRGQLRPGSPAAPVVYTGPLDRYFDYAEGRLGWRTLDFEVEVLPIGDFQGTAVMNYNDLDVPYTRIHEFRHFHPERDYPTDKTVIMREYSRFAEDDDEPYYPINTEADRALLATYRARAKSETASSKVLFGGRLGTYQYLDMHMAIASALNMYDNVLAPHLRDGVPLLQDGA
Large T antigen, sequence (P03070 whole entry): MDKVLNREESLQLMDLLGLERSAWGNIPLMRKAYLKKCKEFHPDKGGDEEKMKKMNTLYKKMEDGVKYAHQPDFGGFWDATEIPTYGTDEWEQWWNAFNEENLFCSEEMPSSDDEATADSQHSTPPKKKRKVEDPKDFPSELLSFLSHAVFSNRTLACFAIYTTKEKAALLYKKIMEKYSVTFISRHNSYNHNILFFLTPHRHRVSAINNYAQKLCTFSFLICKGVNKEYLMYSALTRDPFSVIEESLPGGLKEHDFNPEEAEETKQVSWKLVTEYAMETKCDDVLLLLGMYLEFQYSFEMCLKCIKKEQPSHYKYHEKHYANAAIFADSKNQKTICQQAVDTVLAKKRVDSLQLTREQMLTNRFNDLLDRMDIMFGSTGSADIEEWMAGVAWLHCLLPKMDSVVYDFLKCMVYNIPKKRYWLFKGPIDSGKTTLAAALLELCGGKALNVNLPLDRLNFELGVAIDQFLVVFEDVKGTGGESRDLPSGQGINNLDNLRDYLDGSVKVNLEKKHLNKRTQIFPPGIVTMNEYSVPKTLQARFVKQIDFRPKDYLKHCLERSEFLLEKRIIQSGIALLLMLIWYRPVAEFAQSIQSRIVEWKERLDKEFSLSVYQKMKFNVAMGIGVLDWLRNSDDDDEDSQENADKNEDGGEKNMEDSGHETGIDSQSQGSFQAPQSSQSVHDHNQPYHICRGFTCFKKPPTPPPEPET
Keap1/Nrf2, sequence (Q16236 whole entry): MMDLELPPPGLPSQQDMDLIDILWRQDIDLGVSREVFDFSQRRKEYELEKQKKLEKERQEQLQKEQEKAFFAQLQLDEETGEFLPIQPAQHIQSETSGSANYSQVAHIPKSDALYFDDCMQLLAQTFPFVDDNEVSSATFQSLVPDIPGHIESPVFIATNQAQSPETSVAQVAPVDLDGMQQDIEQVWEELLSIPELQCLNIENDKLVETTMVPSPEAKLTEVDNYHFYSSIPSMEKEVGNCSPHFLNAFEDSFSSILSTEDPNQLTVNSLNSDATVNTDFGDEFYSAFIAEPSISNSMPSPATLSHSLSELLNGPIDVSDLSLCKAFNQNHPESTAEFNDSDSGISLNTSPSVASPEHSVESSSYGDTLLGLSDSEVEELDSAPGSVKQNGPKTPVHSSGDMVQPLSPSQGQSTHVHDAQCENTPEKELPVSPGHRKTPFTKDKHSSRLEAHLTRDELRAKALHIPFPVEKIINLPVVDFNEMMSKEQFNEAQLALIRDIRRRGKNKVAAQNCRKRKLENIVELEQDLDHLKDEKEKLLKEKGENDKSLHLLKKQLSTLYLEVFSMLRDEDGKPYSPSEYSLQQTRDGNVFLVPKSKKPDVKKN
Keap1/Nrf2, sequence (Q14145 whole entry): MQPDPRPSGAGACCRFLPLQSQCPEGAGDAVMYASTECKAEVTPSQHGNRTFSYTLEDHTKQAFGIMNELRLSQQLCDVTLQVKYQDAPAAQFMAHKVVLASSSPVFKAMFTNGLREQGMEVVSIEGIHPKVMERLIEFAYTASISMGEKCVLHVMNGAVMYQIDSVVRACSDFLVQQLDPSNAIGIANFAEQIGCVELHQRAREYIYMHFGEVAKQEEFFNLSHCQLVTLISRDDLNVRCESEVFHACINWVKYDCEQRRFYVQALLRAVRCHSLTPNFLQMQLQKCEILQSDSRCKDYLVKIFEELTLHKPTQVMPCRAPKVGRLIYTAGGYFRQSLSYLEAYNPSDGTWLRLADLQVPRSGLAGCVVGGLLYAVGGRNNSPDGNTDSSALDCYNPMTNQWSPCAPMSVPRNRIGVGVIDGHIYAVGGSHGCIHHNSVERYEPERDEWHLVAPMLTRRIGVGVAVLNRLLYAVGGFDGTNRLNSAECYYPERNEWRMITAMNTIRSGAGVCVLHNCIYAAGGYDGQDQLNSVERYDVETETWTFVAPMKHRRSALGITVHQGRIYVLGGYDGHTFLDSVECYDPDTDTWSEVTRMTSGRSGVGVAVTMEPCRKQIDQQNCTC
Beta Lactamase, sequence (Q932Y6 whole entry): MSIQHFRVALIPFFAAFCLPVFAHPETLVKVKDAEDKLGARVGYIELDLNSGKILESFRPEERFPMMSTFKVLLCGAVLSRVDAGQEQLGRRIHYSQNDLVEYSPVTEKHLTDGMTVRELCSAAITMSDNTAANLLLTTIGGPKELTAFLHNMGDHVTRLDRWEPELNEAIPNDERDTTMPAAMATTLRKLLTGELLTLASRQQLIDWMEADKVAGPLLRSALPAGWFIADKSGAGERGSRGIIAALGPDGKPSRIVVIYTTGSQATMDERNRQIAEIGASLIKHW

SMILES	IC50 [1]	AC50 (Keap1/Nrf2)	AC50 [2]	EC50 (HEK293 [3])	AC50 [4]	AC50 (ORF 73)	EC50 (Insulin-degrading enzyme [5])	IC50 (CHO)	EC50 (Insulin-degrading enzyme [6])	IC50 (Large T antigen)	IC50 (Beta Lactamase)	IC50 (HEK293 [7])	AC50 [8]	AC50 [9]	AC50 (A-375 [10])	AC50 (A-375 [11])	EC50 (Protein RecA)
CC1=NCCc2c1[nH]c1cc(O)ccc21	8.73 µM (active)	4.36 µM (active)	3.13 µM (active)	> 54.6 µM (inactive)	5.89 µM (active)	1.76 µM (active)	> 54.6 µM (inactive)	> 49.8 µM (inactive)	> 54.6 µM (inactive)	8.18 µM (active)	7.96 µM (active)	> 89.1 µM (inactive)	–	–	–	–	–
Cc1c(C#N)c(NC(=O)CCl)n(Cc2cccs2)c1C	–	–	–	–	–	–	–	–	–	–	–	–	48 µM (active)	7.07 µM (active)	> 35 µM (active)	> 35 µM (active)	9.25 µM (active)
